# From patent US5208223A, “Phosphocholine derivative inhibitors of phospholipase A2” (American Cyanamid Company, priority 1992, dated 1993)
# “And” between values parts separate entries of the source, which are not always exact repeats. Equal entries are not always repeated. Structures can show the parent of a compound that is named as a salt.
# Assays:
# Type in all cases: biochemical
# [1] = molecular target: T1, porcine pancreatic PLA2 (Sus scrofa, UniProt P00592); assay: PLA2 assay: in vitro porcine pancreatic phospholipase A2, preincubation of drug+enzyme, substrate 2 nM; settings: subs. con. 2
# T1 construct: purchased Sigma
# Protocol: (§1) Phospholipase A2 activity was measured by a radiochemical assay in which labeled synthetic phosphatidylcholine substrate is converted by porcine pancreatic PLA2 to free radiolabeled arachidonate and lyso PC. Radiolabeled arachidonate is extracted from the reaction mixture and separated from unreacted substrate by column chromatography or TLC. Radioactivity (cpm) in samples is quantitated by liquid scintillation counting. Specific details are as follows:
# (§2) Labeled substrate(1-stearyl-2-^3 H-arachidonylphosphatidylcholine; Amersham, sp. act. 84 (uCi/mmole, 0.025 to 0.2 uCi/assay tube and unlabeled substrates (Avanti), in sufficient quantity to give 20,000 cpm to 50,000 cpm and 10 μM to 1,000 μM final concentration/assay tube are dried under a stream of nitrogen. The PLA2 and mPLA2 assays utilized a […] substrate concentration. The mHPLA2 and HPLA2 assays (vida infra) utilized a 10 μM substrate concentration and the SmPLA2 assay utilized a substrate concentration ranging from 100 to 1000 μm. The substrate is then redissolved in 0.1M tris-HCl buffer, pH 9.0 containing 10 mM CaCl2 and 10 mM Na taurocholate detergent. The mixture is sonicated in a Kontes Sonifier to yield a homogeneous dispersion. The "mixed" micellar substrate is clear. An aliquot is reserved for a cpm count (total substrate). The total reaction volume is 500 μL; siliconized glassware or plasticware is used throughout. Enzyme (Sigma, sp. act.>690 U/mg protein and preferably 900 U/mg protein) is diluted 1:750 or 1:1000 in 0.1M tris-HCl buffer, pH 9.0 (without Ca^++ and detergent). Enzyme dilution depends on substrate concentration and required enzyme concentration.
# (§3) The substrate in buffer is kept on ice until the reaction is started. The reaction is started by adding 10 μL of diluted enzyme solution to 490 μL of micellar substrate solution. Samples are incubated in a 37° C. water bath for 15 minutes with gentle mixing. The reaction is terminated by the addition of 100 μL of 1M fresh trichloroacetic acid (TCA) solution and chilling the tubes on ice for 30 minutes.
# (§4) Samples (600 μL) are extracted with 3 ml CHCl3 /MeOH (2:1) for thin layer chromatography or in hexane/ether (9:1) for column chromatography. The phases are separated by gentle centrifugation at 700 rpm×5'. The organic phase is recovered.
# (§5) Labeled arachidonate extracted with CHCl3 /MeOH is separated on silica gel G TLC plates (Analtech). Twenty μL of a 2 mg/ml internal standard solution of arachidonic acid (Sigma) is combined with 2-3 ml of the organic phase. The entire mixture is dried under nitrogen and redissolved in 50 μL of CHCl3 /MeOH (2:1). A 20 μL sample is counted in 10 ml of Beckman Redi-solv HP and spotted on silica gel G plates. The solvent system used to develop the plate is CHCl3 /MeOH/13.5N NH3 /H2 O (70:30:4:1). Plates are developed in a glass chamber for 1-11/2 hours, air dried, and the spots visualized in an iodine vapor chamber. Standards of phosphatidylcholine, lyso PC, and arachidonic acid (Sigma) are made as 2 mg/ml stocks in CHCl3 /MeOH (2:1) and spotted on plates. Spots corresponding to arachidonate and phospholipid are scraped and counted in 10 ml Beckman Redi-Solv HP scintillation fluid.
# (§6) Samples are extracted with hexane/ether and the upper organic phase recovered. An aliquot is applied to a Silicar CC4 (Malincrodt) column. Columns are prepared using 1 ml of a 1:1 slurry of silicar CC4 in hexane/ether in a Pasteur pipet (approx. 2 cm height). Columns are rinsed with 500 μL of hexane/ether before adding the sample (300-600 μL) to the column. Columns are eluted with a total of 6 ml of hexane/ether. The 6 ml sample is counted in 10 ml of Beckman Redi-Solv HP scintillation fluid.
# or the phospholipase A2 assay, compounds are prepared as 1 mg/ml stock solutions in MeOH and diluted appropriately in PBS.
# [2] = molecular target: T1, porcine pancreatic PLA2; assay: MPLA2 assay: in vitro porcine pancreatic phospholipase A2, mixed micelle design, substrate 2 nM; settings: for inhibition at 10 µg/mL: dose 10 μ/ml; for inhibition at 20 µg/mL: dose 20 μ/ml
# Protocol: as §1, §2, §3, §4, §5, §6
# (§7) or the phospholipase A2 assay, compounds are prepared as 1 mg/ml stock solutions in MeOH and diluted appropriately in PBS. […]
# [3] = molecular target: T1, porcine pancreatic PLA2; assay: MHPLA2 assay: in vitro porcine pancreatic phospholipase A2, mixed micelle design, [s]=10 μm; settings: for inhibition at 25 µg/mL / % Inh.: dose 25 μ/ml; for inhibition at 25 µg/mL / inhibition at 10 µg/mL: subs. con. 10, read-out: % Inh.; for inhibition at 10 µg/mL: dose 10 μ/ml; for inhibition at 20 µg/mL: dose 20 μ/ml; for inhibition at 20 µg/mL / % Inh.: subs. con. 10
# Protocol: as §1, §2, §3, §4, §5, §6, §7
# [4] = dose 10 μ/ml, preincubation, read-out: % Inh.
# [5] = dose 20 μ/ml, preincubation, read-out: % Inh.
# [6] = dose 25 μ/ml, subs. con. 2, read-out: % Inh.
# [7] = dose 10 μ/ml, preincubation, read-out: % Inh. Avg.
# [8] = preincubation, read-out: IC50 (converted)
# [9] = dose 25 μ/ml, subs. con. 2, read-out: % Inh. Avg.
# T1 sequence (P00592 23-146): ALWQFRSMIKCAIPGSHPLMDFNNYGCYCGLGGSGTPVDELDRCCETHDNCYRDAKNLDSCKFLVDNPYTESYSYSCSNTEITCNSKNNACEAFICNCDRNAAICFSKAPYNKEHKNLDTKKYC
Structure (SMILES),"inhibition at 10 µg/mL [1, 4] [%]","inhibition at 20 µg/mL [1, 5] [%]",inhibition at 25 µg/mL [3] [%],"inhibition at 25 µg/mL [2, 6] [%]",inhibition at 10 µg/mL [3] [%],inhibition at 20 µg/mL [3] [%],"inhibition at 10 µg/mL [1, 7] [%]","IC50 [1, 8] [µM]","IC50 ([3]; subs. con. 10, read-out: IC50 (converted)) [µM]","% Inh. ([2]; dose 25 μ/ml, subs. con. 2)","inhibition at 10 µg/mL ([2]; subs. con. 2, read-out: % Inh.) [%]","inhibition at 20 µg/mL ([2]; subs. con. 2, read-out: % Inh.) [%]","inhibition at 25 µg/mL [2, 9] [%]",IC50 ([2]; subs. con. 2) [µM],% Inh. [3],"IC50 ([1]; IC50, preincubation) [µM]","% Inh. ([1]; dose 10 μ/ml, preincubation) [%]","% Inh. ([1]; dose 20 μ/ml, preincubation) [%]","% Inh. Avg. ([2]; dose 25 μ/ml, subs. con. 2) [%]"
"CCCCCOCC(COP(=O)([O-])OCC[N+](C)(C)C)OP(=O)(OC)OCCCCC (single isomer, unassigned; more polar) [3,5,8,10-Tetraoxa-4,9 diphosphapentadecan-1-aminium, 4-hydroxy-9-methoxy-N,N,N-trimethyl-7-[(pentyloxy)methyl]-, hydroxide, inner salt, 4,9-dioxide, more polar isomer]",5,11,0,–,–,–,–,–,–,STIM,–,–,–,–,–,–,–,–,–
"CCCCCCCCCCCCCCCCSCCCOP(=O)([O-])OCC[N+](C)(C)C [3,5-Dioxa-9-thia-4-phosphapentacosan-1-aminium, 4-hydroxy-N,N,N-trimethyl-,hydroxide, inner salt, 4-oxide]",54,64,–,74,–,–,4.5,12.9,–,–,46,83,80,16,STIM,–,–,–,–
"CCCCCCCCCCCCCCCCOCC(CC=NO)COP(=O)([O-])OCC[N+](C)(C)C (stereo not drawn) [4-Hydroxy-7-[2-(hydroxyimino)ethyl]-N,N,N-trimethyl-3,5,9-trioxa-4-phosphaoentacosan-1-aminium, hydroxide, inner salt, 4-oxide]",56,81,28,51,0,8,53,10.1,–,–,19,57,55,–,–,–,–,–,–
"CCCCCCCCCCCCCCCC[S+]([O-])CCCOP(=O)([O-])OCC[N+](C)(C)C (stereo not drawn) [4-Hydroxy-N,N,N-trimethyl-3,5-dioxa-9-thia-4-phosphapentacosan-1-aminium, hydroxide, inner salt, 4.9-dioxide]",59,82,16,68,–,–,61,12.5,–,–,–,–,71,–,–,–,–,–,–
"CCCCCCCCCCCCCCCCOCC(COP(=O)([O-])OCC[N+](C)(C)C)COP(=O)(Oc1ccccc1)Oc1ccccc1 (stereo not drawn) [4-[(Hexadecyloxy)methyl]-7-hydroxy-N,N,N-trimethyl-1,1-diphenoxy-2.6.8 trioxa-1.7-diophosphadecan-10-aminium, hydroxide, inner salt, 1,7-dioxide]",–,–,–,–,–,–,–,–,–,62% and 97%,–,–,–,–,33%,6.59,75,85,79
"CCCCCCCCCCCCCCCCOCC(COP(=O)([O-])OCC[N+](C)(C)C)CB(O)O (stereo not drawn) [7-(Boronomethyl)-4-hydroxy-N,N,N-trimethyl-3,5,9-trioxa-4-phosphapentacosan-1-aminium, hydroxide, inner salt, 4-oxide]",57,77,9,–,–,–,–,10.7,–,–,–,–,44,–,–,–,–,–,–

# The next lines start with results.
"inhibition at 10 µg/mL [1, 4] [%]","inhibition at 20 µg/mL [1, 5] [%]",inhibition at 25 µg/mL [3] [%],"inhibition at 25 µg/mL [2, 6] [%]",inhibition at 10 µg/mL [3] [%],inhibition at 20 µg/mL [3] [%],"inhibition at 10 µg/mL [1, 7] [%]","IC50 [1, 8] [µM]","IC50 ([3]; subs. con. 10, read-out: IC50 (converted)) [µM]",Structure (SMILES),"% Inh. ([2]; dose 25 μ/ml, subs. con. 2)","inhibition at 10 µg/mL ([2]; subs. con. 2, read-out: % Inh.) [%]","inhibition at 20 µg/mL ([2]; subs. con. 2, read-out: % Inh.) [%]","inhibition at 25 µg/mL [2, 9] [%]",IC50 ([2]; subs. con. 2) [µM],% Inh. [3],"IC50 ([1]; IC50, preincubation) [µM]","% Inh. ([1]; dose 10 μ/ml, preincubation) [%]","% Inh. ([1]; dose 20 μ/ml, preincubation) [%]","% Inh. Avg. ([2]; dose 25 μ/ml, subs. con. 2) [%]"
38,38,11,80,–,–,–,–,–,"C=C(CC(COCCCCCCCCCCCCCCCC)COP(=O)([O-])OCC[N+](C)(C)C)C(F)(F)CCCCCCCCCCCCCCCC (stereo not drawn) [3,5,9-Trioxa-4-phosphapentacosan-1-aminium, 7-(3,3-difluoro-2-methylenenonadecyl)-4-hydroxy-N,N,N-trimethyl-, hydroxide, inner salt, 4-oxide]",–,–,–,–,–,–,–,–,–,–
38,41,8,80,0,9,–,–,–,"CCCCCCCCCCCCCCCCOCC(COP(=O)([O-])OCC[N+](C)(C)C)CC(=O)C(F)(F)CCCCCCCCCCCCCCCC (stereo not drawn) [3,5,9-Trioxa-4-phosphapentacosan-1-aminium, 7-(3,3-difluoro-2-oxononadecyl)-4-hydroxy-N,N,N-trimethyl-, hydroxide, inner salt, 4-oxide]",–,88,89,–,–,–,–,–,–,–
45,49,11,82,–,–,–,–,–,"CCCCCCCCCCCCCCCCOCC(COP(=O)([O-])OCC[N+](C)(C)C)CC(O)C(F)(F)CCCCCCCCCCCCCCCC (stereo not drawn) [3,5.9-Trioxa-4-phosphapentacosan-1-aminium, 7-(3,3-difluoro-2-hydroxynonadecyl)-4-hydroxy-N,N,N-trimethyl-, hydroxide, inner salt, 4-oxide]",–,–,–,–,–,–,–,–,–,–
65,88,24,–,0,19,69,9.54,121,"CCCCCCCCCCCCCCCCS(=O)(=O)CCCOP(=O)([O-])OCC[N+](C)(C)C [4-Hydroxy-N,N,N-trimethyl-3,5-dioxa-9-thia-4-phosphapentacosan-1-aminium, hydroxide, inner salt, 4.9.9-trioxide]",–,24,62,–,37.2,–,–,–,–,–
61,61,0,25,–,–,–,7.1,–,"CCCCCCCCCCCCCCCCOCC(COP(=O)([O-])OCC[N+](C)(C)C)CC(=O)C(=O)CCCCCCCCCCCCCCCC (stereo not drawn) [7-(2,3-Dioxononadecyl)-4-hydroxy-N,N,N-trimethyl-3,5,9-trioxa-4-phosphapentacosan-1-aminium, hydroxide, inner salt, 4-oxide]",–,–,–,–,–,–,–,–,–,–
57,60,16,65,–,–,–,6.73,–,"CCCCCCCCCCCCCCCCC#CCC(COCCCCCCCCCCCCCCCC)COP(=O)([O-])OCC[N+](C)(C)C (stereo not drawn) [7-(2-Nonadecynyl)-4-hydroxy-N,N,N-trimethyl-3,5,9-trioxa-4-phosphapentacosan-1-aminium, hydroxide, inner salt, 4-oxide]",–,–,–,–,–,–,–,–,–,–
9,82,19,80,–,–,57,2.99,–,"CCCCCCCCCCCCCCCCOCC(COP(=O)([O-])OCC[N+](C)(C)C)CS(=O)(=O)CCCCCCCCCCCCCCCC (stereo not drawn) [7-[(Hexadecylsulfonyl)methyl]-4-hydroxy-N,N,N-trimethyl-3,5,9-trioxa-4-phosphapentacosan-1-aminium, hydroxide, inner salt, 4-oxide]",–,–,–,72,–,–,–,–,–,–
